Test results from ChEMBL document CHEMBL4732086, “Targeting nuclear protein TDP-43 by cell division cycle kinase 7 inhibitors: A new therapeutic approach for amyotrophic lateral sclerosis” (Eur J Med Chem, 2021).
The source made the active and inactive calls. The rule behind the calls is not given here.

Experiments:
Caenorhabditis elegans [1] = assay: Inhibition of CDC7 in transgenic Caenorhabditis elegans CK423 Bus-8(e2698) expressing human TDP-43 assessed as inhibition of TDP-43 phosphorylation at 10 to 75 uM measured after 6 days by Western blot assay; conditions: dose 10-75 µM, time 6.0 day
SH-SY5Y = assay: Neuroprotective activity in human SH-SY5Y cells assessed as decrease in cytoplasmic TDP-43 preincubated for 1 hr followed by incubation with ethacrynic acid for 24 hrs measured at 10 uM by immunofluorescence assay; assay type: functional, cell-based
[2] = target: Serine/threonine-protein kinase pim-3 (Homo sapiens) (UniProt Q86V86); assay: Inhibition of recombinant human GST-tagged PIM3 expressed in baculovirus expression system using serine/threonine-07 peptide as substrate at 10 uM by Z'-LYTE assay; conditions: time 60.0 min
[3] = target: Glycogen synthase kinase-3 alpha (Homo sapiens) (UniProt P49840); assay: Inhibition of recombinant human full length GST-tagged GSK3A expressed in baculovirus expression system using serine/threonine-09 peptide as substrate at 10 uM incubated for 60 mins in presence of ATP by Z'-LYTE assay
[4] = target: Vascular endothelial growth factor receptor 2 (Homo sapiens) (UniProt P35968); assay: Inhibition of recombinant human His-tagged KDR expressed in baculovirus expression system using Tyr-01 peptide as substrate at 10 uM incubated for 60 mins in presence of ATP by Z'-LYTE assay
[5] = target: Rho-associated protein kinase 1 (Homo sapiens) (UniProt Q13464); assay: Inhibition of recombinant human GST-tagged ROCK1 expressed in baculovirus expression system using serine/threonine-07 peptide as substrate at 10 uM by Z'-LYTE assay; conditions: time 60.0 min
Caenorhabditis elegans [6] = assay: Inhibition of CDC7 in transgenic Caenorhabditis elegans CK423 Bus-8(e2698) expressing human TDP-43 assessed as inhibition of TDP-43 phosphorylation at 75 uM measured after 6 days by Western blot assay; conditions: time 6.0 day
Mus musculus [7] = assay: Neuroprotective activity in Prp-hTDP43 (A315T) transgenic amyotrophic lateral sclerosis mouse model assessed as decrease in clasping behavioural at 5 mg/kg, ip qd measured on week 5 by rotarod test; assay type: functional, organism-based; conditions: time 5.0 weeks
Mus musculus [8] = assay: Neuroprotective activity in Prp-hTDP43 (A315T) transgenic amyotrophic lateral sclerosis mouse model assessed as decrease in clasping behavioural at 5 mg/kg, ip qd measured on week 3 by rotarod test; assay type: functional, organism-based; conditions: time 3.0 weeks
[9] = Toxicity in Prp-hTDP43 (A315T) mouse at 5 mg/kg, ip qd for 30 days; assay type: organism-based; conditions: in vivo, 720 h, time 30 day
Mus musculus [10] = assay: Neuroprotective activity in Prp-hTDP43 (A315T) mouse assessed by decrease in TDP-43 phosphorylation in spinal cord tissue at 5 mg/kg, ip qd for 30 days by Western blot assay; assay type: functional, organism-based; conditions: time 30.0 day

Chain of Rho-associated protein kinase 1 (Homo sapiens) (Q13464 2-1354 limits assumed): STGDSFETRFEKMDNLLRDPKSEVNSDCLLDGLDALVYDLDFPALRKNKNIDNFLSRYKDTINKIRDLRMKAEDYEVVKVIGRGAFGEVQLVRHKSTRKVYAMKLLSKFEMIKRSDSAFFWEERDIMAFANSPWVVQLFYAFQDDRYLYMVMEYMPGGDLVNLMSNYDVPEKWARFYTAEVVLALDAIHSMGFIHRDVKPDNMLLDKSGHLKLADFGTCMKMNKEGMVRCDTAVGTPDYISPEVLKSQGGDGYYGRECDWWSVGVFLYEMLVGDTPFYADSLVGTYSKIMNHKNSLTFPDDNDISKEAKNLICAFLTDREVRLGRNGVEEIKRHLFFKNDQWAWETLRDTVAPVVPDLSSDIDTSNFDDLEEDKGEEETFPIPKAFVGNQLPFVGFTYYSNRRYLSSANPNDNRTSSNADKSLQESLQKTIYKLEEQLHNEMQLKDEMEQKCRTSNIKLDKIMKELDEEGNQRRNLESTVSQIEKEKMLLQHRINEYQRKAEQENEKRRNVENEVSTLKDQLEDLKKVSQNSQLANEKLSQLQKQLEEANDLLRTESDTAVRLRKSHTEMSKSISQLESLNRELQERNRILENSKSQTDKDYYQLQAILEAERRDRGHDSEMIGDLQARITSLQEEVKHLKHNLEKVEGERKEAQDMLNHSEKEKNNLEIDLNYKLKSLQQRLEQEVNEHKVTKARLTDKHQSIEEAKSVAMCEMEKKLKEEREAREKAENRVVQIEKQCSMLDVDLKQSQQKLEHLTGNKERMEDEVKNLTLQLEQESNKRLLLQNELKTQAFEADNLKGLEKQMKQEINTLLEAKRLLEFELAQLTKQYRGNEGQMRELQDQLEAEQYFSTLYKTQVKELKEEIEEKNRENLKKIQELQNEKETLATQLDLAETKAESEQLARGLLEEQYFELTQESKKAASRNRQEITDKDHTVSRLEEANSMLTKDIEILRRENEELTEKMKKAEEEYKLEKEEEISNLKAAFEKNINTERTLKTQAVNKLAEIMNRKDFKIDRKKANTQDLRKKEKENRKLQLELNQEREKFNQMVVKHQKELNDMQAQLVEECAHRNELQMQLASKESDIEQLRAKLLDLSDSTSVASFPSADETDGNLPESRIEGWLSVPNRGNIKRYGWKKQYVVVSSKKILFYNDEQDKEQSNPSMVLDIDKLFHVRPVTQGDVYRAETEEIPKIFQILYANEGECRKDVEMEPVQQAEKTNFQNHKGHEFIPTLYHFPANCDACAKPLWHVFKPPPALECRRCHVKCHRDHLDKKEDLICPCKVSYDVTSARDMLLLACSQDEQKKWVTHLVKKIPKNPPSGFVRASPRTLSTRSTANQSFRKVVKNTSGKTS
Chain of Vascular endothelial growth factor receptor 2 (Homo sapiens) (P35968 whole entry): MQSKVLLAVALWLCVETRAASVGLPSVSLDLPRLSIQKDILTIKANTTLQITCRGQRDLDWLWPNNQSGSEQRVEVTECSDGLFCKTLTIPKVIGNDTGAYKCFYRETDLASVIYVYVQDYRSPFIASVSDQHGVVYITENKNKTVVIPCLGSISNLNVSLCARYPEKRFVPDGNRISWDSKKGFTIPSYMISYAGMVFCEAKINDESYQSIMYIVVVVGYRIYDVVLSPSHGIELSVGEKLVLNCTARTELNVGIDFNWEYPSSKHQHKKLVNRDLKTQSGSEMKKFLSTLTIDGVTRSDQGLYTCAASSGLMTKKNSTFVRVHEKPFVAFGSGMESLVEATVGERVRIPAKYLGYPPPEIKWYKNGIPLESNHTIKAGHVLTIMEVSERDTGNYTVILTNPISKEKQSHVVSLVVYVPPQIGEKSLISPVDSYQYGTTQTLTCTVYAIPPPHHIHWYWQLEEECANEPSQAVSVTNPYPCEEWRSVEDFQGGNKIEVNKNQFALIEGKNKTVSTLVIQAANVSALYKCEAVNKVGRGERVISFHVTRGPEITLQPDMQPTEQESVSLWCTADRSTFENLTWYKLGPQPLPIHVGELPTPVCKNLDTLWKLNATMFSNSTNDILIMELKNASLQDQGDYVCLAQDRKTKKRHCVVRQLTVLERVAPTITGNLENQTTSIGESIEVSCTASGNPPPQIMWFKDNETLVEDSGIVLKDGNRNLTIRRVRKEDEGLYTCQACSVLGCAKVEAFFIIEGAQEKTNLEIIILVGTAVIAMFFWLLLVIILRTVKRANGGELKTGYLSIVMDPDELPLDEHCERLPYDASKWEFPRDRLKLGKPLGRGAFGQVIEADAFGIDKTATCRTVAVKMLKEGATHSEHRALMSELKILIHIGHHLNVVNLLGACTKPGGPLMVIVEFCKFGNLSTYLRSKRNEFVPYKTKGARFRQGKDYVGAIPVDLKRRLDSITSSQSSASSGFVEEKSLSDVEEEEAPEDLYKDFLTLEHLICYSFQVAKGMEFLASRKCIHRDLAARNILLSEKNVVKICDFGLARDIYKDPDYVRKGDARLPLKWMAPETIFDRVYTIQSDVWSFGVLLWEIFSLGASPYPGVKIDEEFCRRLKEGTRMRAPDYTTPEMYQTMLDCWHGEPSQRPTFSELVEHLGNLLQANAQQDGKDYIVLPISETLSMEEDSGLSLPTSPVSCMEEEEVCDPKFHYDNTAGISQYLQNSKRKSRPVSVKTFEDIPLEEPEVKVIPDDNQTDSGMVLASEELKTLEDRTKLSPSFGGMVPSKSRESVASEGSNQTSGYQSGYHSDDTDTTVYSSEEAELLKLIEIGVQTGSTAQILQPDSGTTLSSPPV
Chain of Glycogen synthase kinase-3 alpha (Homo sapiens) (P49840 2-483 limits assumed): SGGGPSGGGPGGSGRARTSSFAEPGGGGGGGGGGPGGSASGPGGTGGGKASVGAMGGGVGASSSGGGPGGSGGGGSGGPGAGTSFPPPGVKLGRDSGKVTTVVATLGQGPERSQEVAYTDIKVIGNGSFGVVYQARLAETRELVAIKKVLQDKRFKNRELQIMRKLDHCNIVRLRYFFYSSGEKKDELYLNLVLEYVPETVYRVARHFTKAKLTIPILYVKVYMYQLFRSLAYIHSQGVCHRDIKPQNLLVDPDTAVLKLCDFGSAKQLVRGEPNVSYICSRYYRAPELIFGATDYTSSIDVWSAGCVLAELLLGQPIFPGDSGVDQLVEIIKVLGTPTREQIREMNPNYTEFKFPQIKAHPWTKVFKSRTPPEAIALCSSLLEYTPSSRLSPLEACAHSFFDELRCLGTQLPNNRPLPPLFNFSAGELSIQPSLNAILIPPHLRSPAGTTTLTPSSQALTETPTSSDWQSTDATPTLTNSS

Row | Structure (SMILES) | inhibition (Caenorhabditis elegans [1]) | Activity (SH-SY5Y) | inhibition [2] | inhibition [3] | inhibition [4] | inhibition [5] | inhibition (Caenorhabditis elegans [6]) | Activity (Mus musculus [7]) | Activity (Mus musculus [8]) | Activity [9] | Activity (Mus musculus [10])
1 | Clc1cccc(CSc2ncnc3[nH]cnc23)c1 | inactive | Active | inactive | inactive | inactive | inactive | – | – | – | – | –
2 | c1ccc(CSc2ncnc3[nH]cnc23)cc1 | – | – | inactive | inactive | inactive | inactive | Active | – | – | – | –
3 | Brc1ccccc1CSc1ncnc2[nH]cnc12 | inactive | – | inactive | inactive | inactive | inactive | – | Active | Active | Non-Toxic | Active
